# Laboratory results from patent US12440454B2, “Pharmaceutical compositions containing hemp extract for administration to felines and related methods” (Portland Technology Holdings LLC, priority 2022, dated 2025).
# Tests used:
# [1] = 24 hour pharmacokinetic analysis of serum cannabinoids after oral CBD/CBDA rich hemp paste; conditions: for detectability in serum of cats at any time point: 24 hour PK; for Css Ave (calculated predicted 5 half-life mean serum concentration): predicted steady state from one compartment model
# Text: (§1) Eight cats from a contract research laboratory (Summit Ridge Farms, Gibson, PA) were utilized for this experiment. 4 spayed female cats and 4 neutered male cats were used. […] The cat population ranged from 4.1 kg to 5.4 kg (mean weight 4.7 kg). An initial dosage of 1 g of paste was fed to each cat at zero hours. Additionally, and after the initial 24-hour pharmacokinetic assessment, treatment with 1 g of paste resumed on the next day for 6 days, twice daily at 7 am and 4 pm each day. […] Cats were fed their normal daily meal approximately 1 hour after oral paste consumption. The base of the paste was a proprietary mix of soy oil, dextrose, dried chicken liver, silica, inulin, polysorbate 60, potassium sorbate, sorbic acid, saccharin, mixed tocopherols, methylparaben, propylparaben in descending order of volume with 15% cannabinoid rich hemp oil emulsified with the product. Prior to enrollment all cats involved in the study were deemed healthy and normal based on physical examination, complete blood count and serum chemistry assessment. During the 1-week trial examination of all cats were assessed at the 1 and 4 hour time point after morning dosing. The assessment included examination for physical abnormalities and examination for adverse events including diarrhea, vomiting, lethargy, somnolence, ataxia, or abnormal behavior within the colony during treatment. Regarding the 24 hour pharmacokinetic study, two milliliters of blood was drawn via jugular venipuncture for all 8 cats prior to the initial dose and then again at 0.5, 1, 2, 4, 8 and 24 hours for a 7 point pharmacokinetic analysis. Complete blood counts, serum chemistry and serum cannabinoid concentrations were performed before the initial treatment and at the end of day 7 treatment, 6 hours after the morning treatment. Complete blood count data included white blood cells (WBC), hematocrit, hemoglobin, red blood cells (RBC), neutrophils, lymphocytes, platelets, monocytes, eosinophils, basophils). Serum biochemistry analyses included sodium, potassium, chloride, magnesium, calcium, phosphorus, albumin, total protein, globulin, urea nitrogen, creatinine, alkaline phosphatase (ALP), alanine aminotransferase (ALT), aspartate amino transferase (AST), cholesterol, total bilirubin, glucose and gamma glutamyl transferase (GGT) with a focus of this report being renal and hepatic parameters. All blood parameters measured were performed at the Cornell University Diagnostic Laboratory.
# (§2) Analysis was performed using an exploratory (fit-for-purpose) method for fast measurement of thirteen cannabinoids and their metabolites at the Toxicology Research Laboratory, University of Illinois at Chicago.
# Cat serum (40 μL) was mixed with 20 μL of internal standards [100 ng/mL of CBD-d3, THC-d3, THCA-d3, 7-COOH-CBD-d3, 7-OH-CBD-d5, 11-OH-THC-d3, COOH-THC-d9, and COOH-THC-Glu-d3 in water:methanol (50:50)] in a 96 well plate. Proteins were precipitated and compounds were extracted by adding 100 μL of ice-cold acetonitrile to the samples, then vortexing for 1-2 minutes and centrifuging at 4,000 rpm for 10 minutes at 4° C. Supernatants (70 μL) were mixed with 70 μL of water in a different 96 well plate, and centrifuged again. […] The column was equilibrated with mobile phase A (0.1% formic acid in water) and mobile phase B (acetonitrile) at 50% B. The compounds were eluted by a linear gradient from 50% B to […] over 6 minutes, and then held at 95% B for 1 minute. Subsequently, the column was re-equilibrated at initial composition for 1 minute at a flow rate of 0.3 mL/min. The autosampler and column temperature were set a 4 and 30° C., respectively. The compounds were detected in electrospray ionization positive and/or negative mode.
# [2] = Serum cannabinoid concentrations after one week of twice daily dosing (day 7, 6 hours post morning dose) compared with predicted steady state; conditions: Student T-test
# Text: as §1, §2
# Cat serum (40 μL) was mixed with 20 μL of internal standards [100 ng/mL of CBD-d3, THC-d3, THCA-d3, 7-COOH-CBD-d3, 7-OH-CBD-d5, 11-OH-THC-d3, COOH-THC-d9, and COOH-THC-Glu-d3 in water:methanol (50:50)] in a 96 well plate. Proteins were precipitated and compounds were extracted by adding 100 μL of ice-cold acetonitrile to the samples, then vortexing for 1-2 minutes and centrifuging at 4,000 rpm for 10 minutes at 4° C. Supernatants (70 μL) were mixed with 70 μL of water in a different 96 well plate, and centrifuged again. […] The compounds were detected in electrospray ionization positive and/or negative mode.
# [3] = both, cat, in vivo, po, 1 g of paste
# [4] = both, in vivo, po, 1 g of paste
# [5] = cats, single oral 1 g paste, serum, 0-24 h, mean ± SD
# [6] = cats, single oral 1 g paste, serum, mean ± SD
structure (smiles),measurement,setting,value
"C=C(C)[C@@H]1CCC(C(=O)O)=C[C@H]1c1c(O)cc(CCCCC)cc1O [7-COOH-CBD, 7-COOH cannabidiol]",detectability in serum of cats at any time point,"[1]; cats, serum",found in all cats
"C=C(C)[C@@H]1CCC(CO)=C[C@H]1c1c(O)cc(CCCCC)cc1O [7-OH-CBD, 7-OH-cannabidiol]",detectability in serum of cats at any time point,"[1]; cats, serum",either below the detectable limit for the analyte or less than half of the population showed any appreciable concentration
same,cats showing no detectable concentrations of this metabolite,"[1]; of the 8 cats, serum",5
"CCCCCc1cc(O)c2c(c1)OC(C)(C)[C@@H]1CCC(CO)=C[C@@H]21 [11-OH-THC, 11-OH-tetrahydrocannabinol]",detectability in serum of cats at any time point,"[1]; cats, serum",either below the detectable limit for the analyte or less than half of the population showed any appreciable concentration
"CCCCCc1cc(O)c2c(c1)OC(C)(CCC=C(C)C)C=C2 (centres unmarked) [CBC, cannabichromene]",detectability in serum of cats at any time point,"[1]; cats, serum",either below the detectable limit for the analyte or less than half of the population showed any appreciable concentration
"C=C(C)[C@@H]1CCC(C)=C[C@H]1c1c(O)cc(CCCCC)cc1O [CBD, cannabidiol, reference compound]",Cmax,[1]; [3],282 ng/mL
same,AUC(0-t),[1]; [4],908 ± 528 ng·h/mL
same,Tmax,[1]; [4],2 h
same,half-life,[1]; [4],2.1 ± 1.1 h
same,Css Ave (calculated predicted 5 half-life mean serum concentration),"[1]; cats, mean ± SD",102.1 ± 46.3 ng/mL
same,predicted steady state (Css Ave) versus actual serum concentration,[2],predicted concentration was higher than the actual concentration
"C=C(C)[C@@H]1CCC(C)=C[C@H]1c1c(O)cc(CCCCC)c(C(=O)O)c1O [CBDA, cannabidiolic acid]",Cmax,[1]; [3],1010 ng/mL
same,AUC(0-t),[1]; [4],2640 ± 1280 ng·h/mL
same,Cmax,[1]; [4],1010 ± 495 ng/mL
same,Tmax,[1]; [4],1.6 ± 1.1 h
same,Css Ave (calculated predicted 5 half-life mean serum concentration),"[1]; cats, mean ± SD",204.5 ± 87.8 ng/mL
same,predicted steady state (Css Ave) versus actual serum concentration,[2],predicted concentration was higher than the actual concentration
"CCCCCc1cc(O)c(C/C=C(\C)CCC=C(C)C)c(O)c1 [CBG, cannabigerol]",AUC(0-t),"[1]; both, in vivo, po",11.4 ± 2.8 ng·h/mL
same,Cmax,"[1]; both, in vivo, po",4.35 ± 1 ng/mL
same,MRT,"[1]; both, in vivo, po",2.3 ± 0.1 h
same,Tmax,"[1]; both, in vivo, po",2 h
same,half-life,"[1]; both, in vivo, po",0.9 ± 0.1 h
"CCCCCc1cc(O)c(C/C=C(\C)CCC=C(C)C)c(O)c1C(=O)O [CBGA, cannabigerolic acid]",AUC(0-t),[1]; [4],34.1 ± 9.5 ng·h/mL
same,Cmax,[1]; [4],19.7 ± 5.5 ng/mL
same,MRT,[1]; [4],1.5 ± 0.2 h
same,Tmax,[1]; [4],1 ± 0.2 h
same,half-life,[1]; [4],0.7 ± 0.1 h
same,Css Ave (calculated predicted 5 half-life mean serum concentration),"[1]; cats, mean ± SD",4.8 ± 1.3 ng/mL
same,predicted steady state (Css Ave) versus actual serum concentration,[2],predicted concentration was higher than the actual concentration
"CCCCCc1cc(O)c2c(c1)OC(C)(C)c1ccc(C)cc1-2 [CBN, cannabinol]",detectability in serum of cats at any time point,"[1]; cats, serum",either below the detectable limit for the analyte or less than half of the population showed any appreciable concentration
"CCCCCc1cc(O)c2c(c1)OC(C)(C)[C@@H]1CCC(C(=O)O)=C[C@@H]21 [COOH-THC, COOH-tetrahydrocannabinol]",detectability in serum of cats at any time point,"[1]; cats, serum",either below the detectable limit for the analyte or less than half of the population showed any appreciable concentration
"CCCCCc1cc(O)c2c(c1)OC(C)(C)[C@H]1CCC(C(=O)O[C@@H]3O[C@H](C(=O)O)[C@@H](O)[C@H](O)[C@H]3O)=C[C@H]21 [COOH-THC-glu, COOH-glucuroniated tetrahydrocannabinol]",detectability in serum of cats at any time point,"[1]; cats, serum",either below the detectable limit for the analyte or less than half of the population showed any appreciable concentration
"CCCCCc1cc(O)c2c(c1)OC(C)(C)[C@@H]1CCC(C)=C[C@@H]21 [THC, Δ9-tetrahydrocannabinol, reference compound]",Css Ave (calculated predicted 5 half-life mean serum concentration),"[1]; cats, mean ± SD",11.9 ± 5.2 ng/mL
same,detectability in serum of cats at any time point,"[1]; cats, serum",either below the detectable limit for the analyte or less than half of the population showed any appreciable concentration
same,AUC(0-t),[1]; [5],156.5 ± 65.8 ng·h/mL
same,Cmax,[1]; [6],40.9 ± 12.9 ng/mL
same,MRT,[1]; [6],3.7 ± 0.4 h
same,T1/2 el,[1]; [6],1.6 ± 0.4 h
same,Tmax,[1]; [6],2 ± 0 h
same,predicted steady state (Css Ave) versus actual serum concentration,[2],predicted concentration was higher than the actual concentration
"CCCCCc1cc2c(c(O)c1C(=O)O)C1C=C(C)CCC1C(C)(C)O2 (centres unmarked) [THCA, Δ9-tetrahydrocannabinolic acid]",Css Ave (calculated predicted 5 half-life mean serum concentration),"[1]; cats, mean ± SD",43.3 ± 13.9 ng/mL
same,AUC(0-t),[1]; [5],434.0 ± 229.1 ng·h/mL
same,Cmax,[1]; [6],87.9 ± 34.0 ng/mL
same,MRT,[1]; [6],5.5 ± 2.1 h
same,T1/2 el,[1]; [6],3.8 ± 1.3 h
same,Tmax,[1]; [6],2 ± 0.9 h
same,predicted steady state (Css Ave) versus actual serum concentration,[2],no different
